Source: a melting point compilation (Tetko et al.; mined from patent text by program, amines drawn as free bases though some values may be those of a salt)

First: COCCOC(=O)Nc1cccc(C)c1CNc1cccn2c(CO)c(C)nc12
Second: CCCCCS(=O)(=O)NC(=O)/C=C/c1ccc(OCCOC)cc1Oc1ncc(NC(C)=O)cc1C
The melting point of the first is lower: 138 to 140 °C for the first, 188 °C for the second.

First: CC(C)n1nc(-c2sc(C(=O)NCc3ccccn3)nc2-c2cccc(Cl)c2)ccc1=O
Second: CC(C)c1ccc(-c2cnc(-c3cccc(C(=O)O)c3)s2)cc1
The melting point of the first is lower: 168 to 170 °C for the first, 218 to 220 °C for the second.

First: CCCCN(C#N)C(=O)C(C)Oc1ccc(Oc2nc3ccc(Cl)cc3o2)cc1 (configuration not stated)
Second: COc1cc(Oc2ccc(Cl)cc2)ccc1[N+](=O)[O-]
The melting point of the first is higher: 91 to 92 °C for the first, 88 to 89 °C for the second.

Compared with `Cc1[nH]cnc1/C=C1\CCc2c(c3cccc4c3n2CCC4)C1=O`, `COc1cccc(C2C(=O)NC(=O)C2c2cn3c4c(cccc24)CCC3)c1` (configuration not stated) is lower in melting point: 260 to 264 °C for the first, 87 to 91 °C for the second.

First: CC(C)c1ccc(C(=O)c2ccc(N)cc2)cc1
Second: CC(C(=O)O)c1ccc(N)cc1 (configuration not stated)
The melting point of the first is lower: 110 °C for the first, 125 to 129 °C for the second.

First: CC(C)n1cc(C(=O)NCc2ccc(Cl)cc2)c(=O)c2cc(C#CCO)sc21
Second: Cc1ccccc1C(=O)c1[nH]c2cc(Cl)ccc2c1CC(=O)O
The melting point of the first is higher: 190 to 196 °C for the first, 150 to 152 °C for the second.

Compared with `O=c1ccc(C(F)(F)F)cn1-c1ccc([N+](=O)[O-])cc1Cl`, `Cc1[nH]c(C)c(-c2ccc(Oc3ccc(C(F)(F)F)cc3)cc2)c(=O)c1Br` is higher in melting point: 218 °C for the first, 304 to 305 °C for the second.

First: CC(C)Cn1c(CNC(=O)OC(C)(C)C)c(-c2ccccc2)c2cc(/C=C/C(=O)O)ccc2c1=O
Second: CC(=O)NCCC1CCc2ccn3nc(-c4ccccc4)cc3c21 (configuration not stated)
The melting point of the first is higher: 172 to 173 °C for the first, 159 to 160 °C for the second.

First: O=C1NC(=O)C(Sc2ccc3ccccc3c2Br)S1 (configuration not stated)
Second: O=c1ccc(S(=O)(=O)c2cc3ccccc3s2)n[nH]1
The melting point of the first is lower: 128 to 129 °C for the first, 209 to 210 °C for the second.

First: CCCCOc1c2ccccc2nc2c1c(C)nn2-c1ccccn1
Second: Cc1ncn(-c2nc(Cl)c(-c3ccccc3)c3ccccc23)c1C
The melting point of the first is lower: 59 to 61 °C for the first, 164 to 165 °C for the second.

First: CC(NC(=O)Cc1cc(F)cc(F)c1)C(=O)NC1C(=O)NC(c2ccncc2)c2ccccc21 (configuration not stated)
Second: COC(=O)[C@@H]1[C@H](NC(=O)Cc2ccccc2)C(=O)N1Cc1ccc(OC)cc1OC (relative stereo)
The melting point of the first is lower: 100 °C for the first, 124 to 126 °C for the second.

Compared with `COC(=O)Cc1ccc(C(=O)O)cc1`, `COC(=O)C(C(=O)OC)c1ccc(Br)cc1` is lower in melting point: 134 to 136 °C for the first, 77 to 79 °C for the second.

Compared with `COC(=O)C1(C(F)(F)CCCCOc2ccc(Cl)cc2)CO1` (configuration not stated), `CNc1cc(C(C)=O)ccc1OCCCCl` is higher in melting point: 40 to 48 °C for the first, 115 to 117 °C for the second.

First: CCc1noc(-c2cn(-c3ncc(Cl)cc3Cl)cn2)n1
Second: CCC1(Cl)NN=C2C=Nc3cc(Cl)c(Cl)cc3N21 (configuration not stated)
The melting point of the first is lower: 132 to 133 °C for the first, 198 to 201 °C for the second.

Compared with `CNc1nnc(-c2ccc3occ(-c4ccc(S(C)=O)cc4)c3c2)o1` (configuration not stated), `COc1cc(S(C)(=O)=O)ccc1-n1nc(C(F)(F)F)cc1-c1ccc(-c2ccco2)cc1` is lower in melting point: 240 to 241 °C for the first, 200 °C for the second.

First: CC(C)(C)OC(=O)N1CC(CCl)c2c1ccc1ccc(C#N)cc21 (configuration not stated)
Second: Cc1c(C#N)c(-c2ccc(C#N)cc2)c(C)n1Cc1cnc(Cl)c(COC(=O)CCC(=O)O)c1
The melting point of the first is lower: 138 to 140 °C for the first, 187 to 188 °C for the second.

First: CCc1nnc(-c2cn3c(C)c(CC)c(OC)nc3n2)o1
Second: COc1ccc(CSc2nnc(-c3ccn4ncnc4c3)o2)cc1C#N
The melting point of the first is lower: 170 to 172 °C for the first, 247 to 248 °C for the second.

Compared with `COC(=O)C(CCCN(C)CCc1ccc(OC)c(OC)c1)c1ccc(OC)c(OC)c1` (configuration not stated), `COc1cc2[nH]nc(C(=O)NN=Cc3ccc([N+](=O)[O-])o3)c2cc1OC` is higher in melting point: 112 to 114 °C for the first, 334 °C for the second.

First: CCOC(=O)C(C#N)=NOC(=O)OC
Second: CCOC(=O)C(=[N+]=[N-])C(=O)c1cc(I)cnc1Cl
The melting point of the first is lower: 69 to 71 °C for the first, 84 to 85 °C for the second.

Compared with `O=C1c2ccccc2C(=O)N1CCc1ccc(CCC2CCCCC2)cc1`, `CCCCN(Cc1ccc(-c2ccccc2-c2nc(=O)o[nH]2)cc1)c1ncccc1C(=O)OCC` is higher in melting point: 135 to 138 °C for the first, 146 to 147 °C for the second.

Compared with `CCOC(=O)c1cn(Cc2c(F)cccc2F)c2cc(Br)c(CBr)cc2c1=O`, `CCn1cc(C(=O)O)c(=O)c2cc(F)c(N3CCSC3)cc21` is higher in melting point: 184 to 187 °C for the first, 270 to 273 °C for the second.

First: O=C(NN1CCN(C(=O)Nc2ccccc2)CC1)c1ccc(F)cc1
Second: Cc1ccc(S(=O)(=O)NC(=O)Nc2ccccc2)cc1
The melting point of the first is higher: 263 to 266 °C for the first, 166 °C for the second.

First: Cc1cccc2c1C(=O)C(=S)N2
Second: Nc1cccc2c1C(=O)C1=C(CCCC1)C2=O
The melting point of the first is higher: 265 °C for the first, 189 to 191 °C for the second.

Compared with `CN(CCOc1ccc(N)cc1)c1ccncc1`, `CC(=O)c1ccc(C(=O)NCCOc2ccc3ccccc3c2)cc1` is lower in melting point: 141 to 142 °C for the first, 131 to 132 °C for the second.

First: CCCCOc1ccc(S(C)(=O)=O)cc1-c1nc2c(CC)n(CCOC)nc2c(=O)[nH]1
Second: CCOP(=O)(COCCOn1cnc2c(N)ncnc21)OCC
The melting point of the first is higher: 174 to 176 °C for the first, 74 to 76 °C for the second.

First: Cc1c(NC(=O)c2ccc(C#CC3(O)CCC3)cc2)ccc2cc(CNCC(C)(C)C)n(C)c12
Second: CC(C)(C)c1cc(-c2ccc(NC(=O)c3ccccc3C(=O)O)cc2)cc(C(C)(C)C)c1O
The melting point of the first is higher: 232 to 233 °C for the first, 196 to 198 °C for the second.

Compared with `NC[C@H]1CN(c2ccc(N3CCOCC3=O)cc2)C(=O)O1`, `Nc1ccc2c(c1)C(=O)C1(CCOC1=O)S2` (configuration not stated) is higher in melting point: 145 to 147 °C for the first, 187 to 190 °C for the second.

First: O=C(c1ccc(-c2cccc3ccccc23)cc1Cl)N1Cc2cccn2Cc2ccccc21
Second: Nc1cccc(Cn2c(-c3ccc(NC(=O)c4ccccc4)cc3)ccc2-c2ccccc2Cl)n1
The melting point of the first is lower: 115 to 118 °C for the first, 196 to 198 °C for the second.

Compared with `Cc1cc2c(c(C)c1NC(=O)OC(C)(C)C)CCO2`, `COC(=O)c1oc2cc(S)ccc2c1C` is lower in melting point: 121 to 122 °C for the first, 118 to 120 °C for the second.

First: C=C1N(CCC)C(=O)OC12CCN(Cc1ccccc1)CC2
Second: CC1(c2ccccc2)CCC(=O)CC1
The melting point of the first is higher: 70 to 71 °C for the first, 48 to 50 °C for the second.

First: COc1ccccc1N1Sc2ccccc2C(c2ccccc2)C1=O (configuration not stated)
Second: COc1cccc(P(=O)(c2ccccc2)c2ccccc2)c1I
The melting point of the first is lower: 133 °C for the first, 186 to 189 °C for the second.

First: CC(C)Cn1cnc2c(N)nc3ccc(CCc4ccccc4)cc3c21
Second: Cc1noc(C)c1-c1cn(Cc2ccccc2)c(=O)c2ccncc12
The melting point of the first is higher: 175 to 178 °C for the first, 159 to 161 °C for the second.

Compared with `CN1C(C(=O)Nc2ccc(F)cc2)=C(O)c2ccc3ccccc3c2S1(=O)=O`, `O=C(O)C(=O)c1ccc(OCCCNC(=O)c2ccc3ccccc3c2)cc1` is lower in melting point: 284 to 285 °C for the first, 169 to 170 °C for the second.

First: CC(C)(C)OC(=O)CN1CC(c2ccsc2)SCC(N)C1=O (configuration not stated)
Second: COc1ccc(CC(=O)O)cc1C12CC3CC(CC(C3)C1)C2
The melting point of the first is higher: 115 to 117 °C for the first, 78 to 79 °C for the second.

Compared with `CCOC(=O)c1ccc(OC(F)F)cc1SC`, `CCOC(=O)c1cc(C(=O)OCC)c(=O)[nH]c1C` is higher in melting point: 83 to 85 °C for the first, 195 to 197 °C for the second.

Compared with `CS(=O)(=O)NC(=O)c1cccc(N)c1`, `CC1(C)Oc2ccc(Cl)cc2C(NS(C)(=O)=O)C1O` (configuration not stated) is higher in melting point: 153 to 155 °C for the first, 198 to 202 °C for the second.

First: CC(C)c1cccc2c1OC(C(F)(F)F)C(C(=O)O)=C2 (configuration not stated)
Second: CCn1cc(C(=O)O)c2nc3c(C)cccc3cc2c1=O
The melting point of the first is lower: 210 to 212 °C for the first, 251 to 253 °C for the second.

Compared with `CCOC1Oc2ccc3cc(C#N)c(Cn4cncn4)cc3c2C1(C)C` (configuration not stated), `CCCc1nc2cnc3ccc([N+](=O)[O-])cc3c2s1` is higher in melting point: 128 to 129 °C for the first, 228 to 230 °C for the second.

Compared with `COc1ccc(NC2(C(N)=O)CCOCC2)cc1`, `CC(=O)Oc1ccc(C=CC(=O)NC2CCc3ccccc32)cc1[N+](=O)[O-]` (configuration not stated) is higher in melting point: 141 to 143 °C for the first, 177 to 178 °C for the second.

First: CC12NCCCN1C(=O)c1ccccc12 (configuration not stated)
Second: CC(O)C1COCc2nc3c(N)nc4ccccc4c3n21 (configuration not stated)
The melting point of the first is lower: 64.5 °C for the first, 208 to 209 °C for the second.

Compared with `O=C(c1ccc(F)c(F)c1)N1CCCC(c2noc(-c3ncc[nH]3)n2)C1` (configuration not stated), `Cc1c(F)c(N2CCCC(n3ccnn3)C2)c(F)c2c1c(=O)c(C(=O)O)cn2C1CC1` (configuration not stated) is higher in melting point: 148 to 149 °C for the first, 227 to 228 °C for the second.

First: Cc1ccc(S(=O)(=O)N2[C@H](CCCCC#N)CC[C@@H]2c2ccc(F)cc2)cc1 (racemic)
Second: NC(=O)c1n[nH]c(-c2ccc(Cl)cc2)c1-c1ccc(S(N)(=O)=O)cc1
The melting point of the first is lower: 79 °C for the first, 108 to 110 °C for the second.

First: CC(=O)OCC(=O)Nc1cccc(-c2nnc(C(c3ccc(Cl)cc3)c3c(Cl)ccc(-n4ncc(=O)[nH]c4=O)c3Cl)o2)c1C (configuration not stated)
Second: Cc1oc(-c2ccco2)nc1COc1ccc(COc2nn(Cc3ccccc3)cc2C(=O)O)cc1Cl
The melting point of the first is higher: 206 °C for the first, 191 to 192 °C for the second.

First: O=C(O)COc1cccc2c1CCC(Cc1c[nH]c(C(c3ccccc3)c3ccccc3)n1)C2 (configuration not stated)
Second: O=C(O)C(=NOCc1ccccc1)c1csc2ccccc12
The melting point of the first is higher: 170 °C for the first, 120 to 121 °C for the second.

First: CNC(C(N)=O)c1cn(C2CCc3c(F)cc(F)cc3C2)c(=S)[nH]1 (configuration not stated)
Second: COc1cc(OC)nc(Cc2ccccc2NS(=O)(=O)C(F)(F)F)n1
The melting point of the first is higher: 212 to 213 °C for the first, 99 to 100 °C for the second.

First: CCN(CC)CCNC(=O)c1cccc2cc3c(I)cccc3nc12
Second: O=CNCC(=O)c1cccc(Nc2ccc3ccccc3n2)c1
The melting point of the first is lower: 78 to 80 °C for the first, 194 to 196 °C for the second.

First: COc1ccc(C[N+](=O)[O-])c(C=CC[N+](=O)[O-])c1OCc1ccccc1
Second: O[C@@H]1CN(Cc2ccccc2)C[C@H]1Oc1ccc(Cl)cc1 (relative stereo)
The melting point of the first is higher: 149 to 150 °C for the first, 101 to 104 °C for the second.

First: CCc1cccc2c3c([nH]c12)C(CC)(CC)OCC3
Second: CCCNC(=S)n1nc(Oc2ncc(C(F)(F)F)cc2Cl)cc1C
The melting point of the first is higher: 133 to 134 °C for the first, 51 to 53 °C for the second.

First: N=C(N)SCc1cccc(CSC(=N)N)c1
Second: O=C(CC(CC1CCCCC1)C(=O)O)c1ccco1 (configuration not stated)
The melting point of the first is higher: 216 to 218 °C for the first, 91 to 94 °C for the second.

Compared with `CC[C@H](C)[C@H](Nc1nc(OC)ns1)C(=O)N1CCC[C@H]1C(=O)O`, `COc1cc(C#N)ccc1C(Br)C(Br)C(=O)c1ccc(C#N)cc1` (configuration not stated) is higher in melting point: 112 to 114 °C for the first, 163 to 165 °C for the second.

First: Fc1ccc2nc(Cl)c(Cl)nc2c1
Second: S=C(NCCCN1CCCC1)NCCCN(Cc1ccc(Cl)c(Cl)c1)c1ccc(Br)cn1
The melting point of the first is higher: 148 to 152 °C for the first, 122 to 124 °C for the second.
